This assay concerns Human immunodeficiency virus 1. As to the kind of experiment: Tested for activity against HIV in cell culture at concentration of 100 ug/mL; NA denotes no activity. It counts as functional, organism-based.

The source made the active and inactive calls. The calls are words filed in the database; no cut-off is given here.

Consider `Cc1cn(N2CC(CO)C(N=[N+]=[N-])C2)c(=O)[nH]c1=O` (stereo not drawn), for which the outcome was inactive.
For `Cc1cn(N2CC(F)C(CO)C2)c(=O)[nH]c1=O` (stereo not drawn) the value was “inactive”.
For `Cc1cn(N2CC(O)C(CO)C2)c(=O)[nH]c1=O` (stereo not drawn) the value was “inactive”.

Source of the values: ChEMBL document CHEMBL1125990, “Synthesis of novel 1-nitrogen replaced carbocyclic thymidine analogs as potential anti aids agents” (Bioorg Med Chem Lett, 1991).
